In patent US20100267561A1, “HERBICIDAL PYRIDAZINONE DERIVATIVES” (priority 2007, published 2010):

Tests used:
Type in all cases: in vivo
[1] = tested on: umbrella sedge (Cyperus difformis); assay: Test B flooded paddy test plant response
Outline: (§1)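 Rice, umbrella sedge, ducksalad and barnyardgrass at 2-leaf stage; pots flooded to 3 cm, compounds applied into paddy water, depth held throughout. Greenhouse 13 to 15 days, then visual rating vs untreated controls on 0–100 scale (0 no effect, 100 complete control); dash means no test result.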

[2] = tested on: barnyardgrass (Echinochloa crus-galli); assay: Test B flooded paddy test plant response
Outline: as §1

[3] = tested on: ducksalad (Heteranthera limosa); assay: Test B flooded paddy test plant response
Outline: as §1

rice (Oryza sativa) = assay: Test B flooded paddy test plant response
Outline: as §1

[4] = tested on: velvetleaf (Abutilon theophrasti); assay: Test A pre-/postemergence plant response
Source text: (§2) Seeds of species selected from barnyardgrass (Echinochloa crus-galli), large crabgrass (Digitaria sanguinalis), giant foxtail (Setaria faberi), blackgrass (Alopecurus myosuroides), canarygrass (Phalaris minor), morningglory (Ipomoea coccinea), pigweed (Amaranthus retroflexus), velvetleaf (Abutilon theophrasti), wheat (Triticum aestivum), and corn (Zea mays) were planted into a blend of loam soil and sand and treated preemergence with a directed soil spray using test chemicals formulated in a non-phytotoxic solvent mixture which included a surfactant. At the same time these species were also treated with postemergence applications of test chemicals formulated in the same manner.
(§3) Plants ranged in height from 2 to 10 cm and were in the one- to two-leaf stage for the postemergence treatment. Treated plants and untreated controls were maintained in a greenhouse for approximately 10 days, after which time all treated plants were compared to untreated controls and visually evaluated for injury. Plant response ratings, summarized in Table A, are based on a 0 to 100 scale where 0 is no effect and 100 is complete control. A dash (-) response means no test results.

[5] = tested on: barnyardgrass (Echinochloa crus-galli); assay: Test A pre-/postemergence plant response
Source text: as §2, §3

[6] = tested on: wheat (Triticum aestivum); assay: Test A pre-/postemergence plant response
Source text: as §2, §3

[7] = tested on: large crabgrass (Digitaria sanguinalis); assay: Test A pre-/postemergence plant response
Source text: as §2, §3

corn (Zea mays) = assay: Test A pre-/postemergence plant response
Source text: as §2, §3

[8] = tested on: giant foxtail (Setaria faberi); assay: Test A pre-/postemergence plant response
Source text: as §2, §3

[9] = tested on: pigweed (Amaranthus retroflexus); assay: Test A pre-/postemergence plant response
Source text: as §2, §3

[10] = tested on: morningglory (Ipomoea coccinea); assay: Test A pre-/postemergence plant response
Source text: as §2, §3

[11] = Flood (flooded paddy test), 62 g ai/ha, scale 0 to 100, 0 no effect, 100 complete control
[12] = Flood (flooded paddy test), 250 g ai/ha, scale 0 to 100, 0 no effect, 100 complete control
[13] = Postemergence, 125 g ai/ha, 0 to 100 scale, 0 no effect, 100 complete control
[14] = Postemergence, 500 g ai/ha, 0 to 100 scale, 0 no effect, 100 complete control
[15] = Preemergence, 125 g ai/ha, 0 to 100 scale (0 no effect, 100 complete control)
[16] = Preemergence, 500 g ai/ha, 0 to 100 scale (0 no effect, 100 complete control)
[17] = Flood (flooded paddy test), 125 g ai/ha, scale 0 to 100, 0 no effect, 100 complete control
[18] = Flood, 31 g ai/ha, scale 0 to 100
[19] = Postemergence, 31 g ai/ha, 0 to 100 scale, 0 no effect, 100 complete control
[20] = Preemergence, 31 g ai/ha, 0 to 100 scale, 0 is no effect, 100 is complete control

Cc1cc(-n2cc(Cl)cn2)ccc1-c1c(O)cnn(C)c1=O [Compound 60]
Plant response rating, Sedge, Umbrella [1, 11]: 0
Plant response rating, Sedge, Umbrella [1, 12]: 0
Plant response rating, Barnyardgrass [2, 11]: 0
Plant response rating, Barnyardgrass [2, 12]: 30
Plant response rating, Ducksalad [3, 11]: 0
Plant response rating, Ducksalad [3, 12]: 0
Plant response rating, Rice (rice (Oryza sativa); [11]): 0
Plant response rating, Rice (rice (Oryza sativa); [12]): 30
Plant response rating, Velvetleaf [4, 13]: 0
Plant response rating, Velvetleaf [4, 14]: 0
Plant response rating, Velvetleaf [4, 15]: 0
Plant response rating, Velvetleaf [4, 16]: 0
Plant response rating, Barnyardgrass [5, 13]: 30
Plant response rating, Barnyardgrass [5, 14]: 90
Plant response rating, Barnyardgrass [5, 15]: 70
Plant response rating, Barnyardgrass [5, 16]: 100
Plant response rating, Wheat [6, 13]: 0
Plant response rating, Wheat [6, 14]: 50
Plant response rating, Wheat [6, 15]: 0
Plant response rating, Wheat [6, 16]: 50
Plant response rating, Crabgrass, Large [7, 13]: 20
Plant response rating, Crabgrass, Large [7, 14]: 60
Plant response rating, Crabgrass, Large [7, 15]: 20
Plant response rating, Crabgrass, Large [7, 16]: 80
Plant response rating, Corn (corn (Zea mays); [13]): 40
Plant response rating, Corn (corn (Zea mays); [14]): 90
Plant response rating, Corn (corn (Zea mays); [15]): 50
Plant response rating, Corn (corn (Zea mays); [16]): 90
Plant response rating, Foxtail, Giant [8, 13]: 50
Plant response rating, Foxtail, Giant [8, 14]: 80
Plant response rating, Foxtail, Giant [8, 15]: 80
Plant response rating, Foxtail, Giant [8, 16]: 100
Plant response rating, Pigweed [9, 13]: 0
Plant response rating, Pigweed [9, 14]: 0
Plant response rating, Pigweed [9, 15]: 0
Plant response rating, Pigweed [9, 16]: 0
Plant response rating, Morningglory [10, 13]: 0
Plant response rating, Morningglory [10, 14]: 0
Plant response rating, Morningglory [10, 15]: 0
Plant response rating, Morningglory [10, 16]: 0

Cc1nc(-c2ccc(Cl)cc2)nn1-c1c(O)cnn(C)c1=O [Compound 17]
Plant response rating, Sedge, Umbrella [1, 11]: 40
Plant response rating, Sedge, Umbrella [1, 17]: 40
Plant response rating, Sedge, Umbrella [1, 12]: 70
Plant response rating, Sedge, Umbrella [1, 18]: 30
Plant response rating, Barnyardgrass [2, 11]: 0
Plant response rating, Barnyardgrass [2, 17]: 0
Plant response rating, Barnyardgrass [2, 12]: 0
Plant response rating, Barnyardgrass [2, 18]: 0
Plant response rating, Ducksalad [3, 11]: 40
Plant response rating, Ducksalad [3, 17]: 40
Plant response rating, Ducksalad [3, 12]: 95
Plant response rating, Ducksalad [3, 18]: 40
Plant response rating, Rice (rice (Oryza sativa); [11]): 15
Plant response rating, Rice (rice (Oryza sativa); [17]): 20
Plant response rating, Rice (rice (Oryza sativa); [12]): 40
Plant response rating, Rice (rice (Oryza sativa); [18]): 0
Plant response rating, Velvetleaf [4, 13]: 0
Plant response rating, Velvetleaf [4, 14]: 0
Plant response rating, Velvetleaf [4, 15]: 0
Plant response rating, Velvetleaf [4, 16]: 0
Plant response rating, Barnyardgrass [5, 13]: 50
Plant response rating, Barnyardgrass [5, 14]: 90
Plant response rating, Barnyardgrass [5, 15]: 40
Plant response rating, Barnyardgrass [5, 16]: 100
Plant response rating, Wheat [6, 13]: 0
Plant response rating, Wheat [6, 14]: 50
Plant response rating, Wheat [6, 15]: 20
Plant response rating, Wheat [6, 16]: 50
Plant response rating, Crabgrass, Large [7, 13]: 40
Plant response rating, Crabgrass, Large [7, 14]: 80
Plant response rating, Crabgrass, Large [7, 15]: 0
Plant response rating, Crabgrass, Large [7, 16]: 70
Plant response rating, Corn (corn (Zea mays); [13]): 0
Plant response rating, Corn (corn (Zea mays); [14]): 40
Plant response rating, Corn (corn (Zea mays); [15]): 0
Plant response rating, Corn (corn (Zea mays); [16]): 40
Plant response rating, Foxtail, Giant [8, 13]: 80
Plant response rating, Foxtail, Giant [8, 14]: 90
Plant response rating, Foxtail, Giant [8, 15]: 40
Plant response rating, Foxtail, Giant [8, 16]: 90
Plant response rating, Pigweed [9, 13]: 0
Plant response rating, Pigweed [9, 14]: 0
Plant response rating, Pigweed [9, 15]: 0
Plant response rating, Pigweed [9, 16]: 0
Plant response rating, Morningglory [10, 13]: 0
Plant response rating, Morningglory [10, 14]: 0
Plant response rating, Morningglory [10, 15]: 0
Plant response rating, Morningglory [10, 16]: 0

Cc1cc(-c2ccc(Cl)cc2)nn1-c1c(OC(=O)N(C)C)cnn(C)c1=O [Compound 64]
Plant response rating, Sedge, Umbrella [1, 11]: 0
Plant response rating, Sedge, Umbrella [1, 12]: 0
Plant response rating, Barnyardgrass [2, 11]: 0
Plant response rating, Barnyardgrass [2, 12]: 0
Plant response rating, Ducksalad [3, 11]: 0
Plant response rating, Ducksalad [3, 12]: 0
Plant response rating, Rice (rice (Oryza sativa); [11]): 0
Plant response rating, Rice (rice (Oryza sativa); [12]): 0
Plant response rating, Velvetleaf [4, 19]: 0
Plant response rating, Velvetleaf [4, 13]: 0
Plant response rating, Velvetleaf [4, 20]: 0
Plant response rating, Velvetleaf [4, 15]: 0
Plant response rating, Barnyardgrass [5, 19]: 0
Plant response rating, Barnyardgrass [5, 13]: 10
Plant response rating, Barnyardgrass [5, 20]: 0
Plant response rating, Barnyardgrass [5, 15]: 0
Plant response rating, Wheat [6, 19]: 0
Plant response rating, Wheat [6, 13]: 0
Plant response rating, Wheat [6, 20]: 0
Plant response rating, Wheat [6, 15]: 0
Plant response rating, Crabgrass, Large [7, 19]: 0
Plant response rating, Crabgrass, Large [7, 13]: 40
Plant response rating, Crabgrass, Large [7, 20]: 0
Plant response rating, Crabgrass, Large [7, 15]: 50
Plant response rating, Corn (corn (Zea mays); [19]): 0
Plant response rating, Corn (corn (Zea mays); [13]): 60
Plant response rating, Corn (corn (Zea mays); [20]): 0
Plant response rating, Corn (corn (Zea mays); [15]): 30
Plant response rating, Foxtail, Giant [8, 19]: 30
Plant response rating, Foxtail, Giant [8, 13]: 80
Plant response rating, Foxtail, Giant [8, 20]: 0
Plant response rating, Foxtail, Giant [8, 15]: 50
Plant response rating, Pigweed [9, 19]: 0
Plant response rating, Pigweed [9, 13]: 0
Plant response rating, Pigweed [9, 20]: 0
Plant response rating, Pigweed [9, 15]: 0
Plant response rating, Morningglory [10, 19]: 0
Plant response rating, Morningglory [10, 13]: 0
Plant response rating, Morningglory [10, 20]: 0
Plant response rating, Morningglory [10, 15]: 0
